Measured values: patent US20240190880A1 (THE REGENTS OF THE UNIVERSITY OF MICHIGAN, priority 2021, published 2024)
Where two headings read alike, the source gives them in different places.

Molecular target: T1, ER (Homo sapiens, UniProt P03372)
T1 construct: host or cells: T47D and MCF7 human breast cancer cells
T1 sequence (P03372 1-595): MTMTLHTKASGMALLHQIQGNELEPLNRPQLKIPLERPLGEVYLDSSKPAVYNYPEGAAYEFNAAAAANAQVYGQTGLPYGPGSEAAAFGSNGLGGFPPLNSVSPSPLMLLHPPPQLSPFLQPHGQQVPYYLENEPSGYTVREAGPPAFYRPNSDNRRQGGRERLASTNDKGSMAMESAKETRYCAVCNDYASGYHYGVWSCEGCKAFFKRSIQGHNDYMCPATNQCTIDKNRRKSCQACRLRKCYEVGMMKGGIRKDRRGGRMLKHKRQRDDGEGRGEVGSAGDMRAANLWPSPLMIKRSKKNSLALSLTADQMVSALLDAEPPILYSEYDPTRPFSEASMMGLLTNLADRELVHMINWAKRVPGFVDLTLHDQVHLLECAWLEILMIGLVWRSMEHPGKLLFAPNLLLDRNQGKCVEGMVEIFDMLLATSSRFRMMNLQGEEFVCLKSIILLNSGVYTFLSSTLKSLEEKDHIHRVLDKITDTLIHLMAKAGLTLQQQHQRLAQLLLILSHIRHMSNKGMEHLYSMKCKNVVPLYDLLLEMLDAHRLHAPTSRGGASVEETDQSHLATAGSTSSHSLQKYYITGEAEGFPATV
Experiment: ER degradation activity, in-cell western blot analysis in T47D cells
Assay type: cell-based
Summary of the method: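 T47D cells cultured in DMEM with 10% FBS, treated with compounds (final 0.5% DMSO) for 16 h. ER level measured by in-cell western with anti-rabbit-680/anti-mouse-800 near-infrared detection. Relative ER percentage calculated against untreated and DMSO-treated wells set as 100%.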

[1] = 16 hours, Table A does not say which cell line (T47D or MCF7), read-out: Potency (DC50)

Row | Compound | DC50 [1] [nM] | DC50 (compounds 16 hours, Table A does not say whether T47D or MCF7, read-out: Potency (DC50)) [nM]
1 | C[C@@H]1Cc2c([nH]c3ccccc23)[C@@H](c2c(F)cc(N3CCC(CN4CC(N5Cc6cc7c(cc6C5)C(=O)N(C5CCC(=O)NC5=O)C7=O)C4)CC3)cc2F)N1CC(F)F (stereo partly drawn) [E 50, 6-(1-((1-(4-((1R,3R)-2-(2,2-difluoroethyl)-3-methyl-2,3,4,9-tetrahydro-1H-pyrido[3,4-b]indol-1-yl)-3,5-difluorophenyl)piperidin-4-yl)methyl)azetidin-3-yl)-2-(2,6-dioxopiperidin-3-yl)-6,7-dihydropyrrolo[3,4-f]isoindole-1,3(2H,5H)-dione] | > 100 | –
2 | O=C1CCC(N2C(=O)c3cc4c(cc3C2=O)CN(CC(=O)N2CCC3(CC2)CCN(c2ccc(C(=C(CCCl)c5ccc(F)cc5)c5ccc(O)cc5)cc2)CC3)CC4)C(=O)N1 (centres unmarked) [E 193] | 10 to 100 | –
3 | O=C1CCC(N2C(=O)c3cc4c(cc3C2=O)CN(C[C@H]2CC[C@H](N3CC(Nc5ccc([C@@H]6c7ccc(O)cc7CC[C@@H]6c6ccccc6)cc5)C3)CC2)C4)C(=O)N1 (stereo partly drawn) [E 374, 2-(2,6-dioxopiperidin-3-yl)-6-(((1R,4r)-4-(3-((4-((1R,2S)-6-hydroxy-2-phenyl-1,2,3,4-tetrahydronaphthalen-1-yl)phenyl)amino)azetidin-1-yl)cyclohexyl)methyl)-6,7-dihydropyrrolo[3,4-f]isoindole-1,3(2H,5H)-dione] | > 100 | –
4 | O=C1CCC(N2C(=O)c3cc4c(cc3C2=O)CN(C(=O)CN2CC3(CCN(c5ccc([C@@H]6c7ccc(O)cc7CC[C@@H]6c6ccccc6)cc5)CC3)C2)C4)C(=O)N1 (mixture of isomers) [E 125, Rac-2-(2,6-dioxopiperidin-3-yl)-6-(2-(7-(4-((1R,2S)-6-hydroxy-2-phenyl-1,2,3,4-tetrahydronaphthalen-1-yl)phenyl)-2,7-diazaspiro[3.5]nonan-2-yl)acetyl)-6,7-dihydropyrrolo[3,4-f]isoindole-1,3(2H,5H)-dione] | 10 to 100 | –
5 | C[C@@H]1Cc2c([nH]c3ccccc23)[C@@H](c2c(F)cc(-c3ccc(CN4CCC(N5Cc6cc7c(cc6C5)C(=O)N(C5CCC(=O)NC5=O)C7=O)CC4)nc3)cc2F)N1CC(F)F (stereo partly drawn) [E326, 6-(1-((5-(4-((1R,3R)-2-(2,2-difluoroethyl)-3-methyl-2,3,4,9-tetrahydro-1H-pyrido[3,4-b]indol-1-yl)-3,5-difluorophenyl)pyridin-2-yl)methyl)piperidin-4-yl)-2-(2,6-dioxopiperidin-3-yl)-6,7-dihydropyrrolo[3,4-f]isoindole-1,3(2H,5H)-dione] | > 100 | –
6 | C[C@@H]1CC2(CCN(c3ccc([C@@H]4c5ccc(O)cc5CC[C@@H]4c4ccc(F)cc4)cc3)CC2)CN1CC(=O)N1Cc2cc3c(cc2C1)C(=O)N(C1CCC(=O)NC1=O)C3=O (mixture of isomers) [E 146, Rac-2-(2,6-dioxopiperidin-3-yl)-6-(2-((R)-8-(4-((1R,2S)-2-(4-fluorophenyl)-6-hydroxy-1,2,3,4-tetrahydronaphthalen-1-yl)phenyl)-3-methyl-2,8-diazaspiro[4.5]decan-2-yl)acetyl)-6,7-dihydropyrrolo[3,4-f]isoindole-1,3(2H,5H)-dione] | > 100 | –
7 | O=C1CCC(N2Cc3cc4c(cc3C2=O)CN(C2CCN(CC3CCN(c5ccc([C@@H]6c7ccc(O)cc7CC[C@@H]6c6ccccc6)cc5)CC3)CC2)C4=O)C(=O)N1 (stereo partly drawn) [E 506, 2-(2,6-dioxopiperidin-3-yl)-6-(1-((1-(4-((1R,2S)-6-hydroxy-2-phenyl-1,2,3,4-tetrahydronaphthalen-1-yl)phenyl)piperidin-4-yl)methyl)piperidin-4-yl)-2,3,6,7-tetrahydropyrrolo[3,4-f]isoindole-1,5-dione] | – | > 100
8 | O=C1CCC(N2C(=O)c3cc4c(cc3C2=O)CN(C(=O)CN2CCC3(CC2)CCN(c2ccc(C(=C(CCCl)c5ccccc5)c5ccc(O)cc5)cc2)CC3)C4)C(=O)N1 (centres unmarked) [E 195, 6-(2-(9-(4-(4-chloro-1-(4-hydroxyphenyl)-2-phenylbut-1-en-1-yl)phenyl)-3,9-diazaspiro[5.5]undecan-3-yl)acetyl)-2-(2,6-dioxopiperidin-3-yl)-6,7-dihydropyrrolo[3,4-f]isoindole-1,3(2H,5H)-dione] | 10 to 100 | –
